Assay results taken from patent US8952024B2, “Herbicidal pyrimidone derivatives” (E I du Pont de Nemours and Company, priority 2009, dated 2015).

What was measured:
Format in all cases: in vivo
[1] = system: barnyardgrass (Echinochloa crus-galli); assay: Test A pre-/postemergence plant response
Method in brief: (§1)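 Seeds planted in loam soil/sand blend; test chemicals in non-phytotoxic solvent mixture with surfactant applied as directed soil spray preemergence and, concurrently, postemergence to plants 2–10 cm tall at one- to two-leaf stage. Greenhouse ~10 days; visual injury vs untreated controls, 0 (no effect) to 100 (complete control).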

corn (Zea mays) = assay: Test A pre-/postemergence plant response
Method in brief: as §1

[2] = system: giant foxtail (Setaria faberii); assay: Test A pre-/postemergence plant response
Method in brief: as §1

[3] = system: large crabgrass (Digitaria sanguinalis); assay: Test A pre-/postemergence plant response
Method in brief: as §1

[4] = system: morningglory (Ipomoea spp.); assay: Test A pre-/postemergence plant response
Method in brief: as §1

[5] = system: pigweed (Amaranthus retroflexus); assay: Test A pre-/postemergence plant response
Method in brief: as §1

[6] = system: velvetleaf (Abutilon theophrasti); assay: Test A pre-/postemergence plant response
Method in brief: as §1

[7] = system: wheat (Triticum aestivum); assay: Test A pre-/postemergence plant response
Method in brief: as §1

[8] = system: barnyardgrass (Echinochloa crus-galli); assay: Test B flooded paddy test; settings: for Plant response rating, Barnyardgrass: Flood (flooded paddy test), 13 to 15 days
Method in brief: (§2)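 2-leaf seedlings; pots flooded 3 cm over soil at treatment; cpd dosed into floodwater, depth kept constant. Greenhouse 13–15 d. Visual rating vs untreated controls, 0 = no effect, 100 = complete control.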

[9] = system: ducksalad (Heteranthera limosa); assay: Test B flooded paddy test; settings: for Plant response rating, Ducksalad: Flood (flooded paddy test), 13 to 15 days
Method in brief: as §2

rice (Oryza sativa) = assay: Test B flooded paddy test; settings: for Plant response rating, Rice: Flood (flooded paddy test), 13 to 15 days
Method in brief: as §2

[10] = system: umbrella sedge (Cyperus difformis); assay: Test B flooded paddy test; settings: for Plant response rating, Sedge, Umbrella: Flood (flooded paddy test), 13 to 15 days
Method in brief: as §2

[11] = Postemergence, 125 g ai/ha, 0 to 100 scale where 0 is no effect and 100 is complete control
[12] = Postemergence, 500 g ai/ha, visual injury, 0 to 100 scale (0 no effect, 100 complete control), approx. ten days
[13] = Preemergence, 125 g ai/ha, 0 to 100 scale, 0 = no effect, 100 = complete control
[14] = Preemergence, 500 g ai/ha, 0 to 100 scale, 0 = no effect, 100 = complete control
[15] = 250 g ai/ha, flooded paddy test, visual rating on 0 to 100 scale (0 no effect, 100 complete control) after 13 to 15 days
[16] = 62 g ai/ha, scale of 0 to 100 where 0 is no effect and 100 is complete control
[17] = 125 g ai/ha, scale 0 to 100, 0 is no effect, 100 is complete control
[18] = Flood, 31 g ai/ha, scale 0 to 100 (0 no effect, 100 complete control)

`CCCn1c(-c2ccco2)ncc(C(=O)C2=C(O)C3CCC(C3)C2=O)c1=O` (centres unmarked) [Compound 230] was tested, and the “Plant response rating, Barnyardgrass” value [1, 11] was 70, the “Barnyardgrass plant response rating” value [1, 12] was 90 and the “Plant response rating, Barnyardgrass” value [1, 13] was 10. For the same compound, the “Plant response rating, Barnyardgrass” value [1, 14] was 80, the “Plant response rating, Corn” value (corn (Zea mays); [11]) was 0 and the “Corn plant response rating” value (corn (Zea mays); [12]) was 20. For the same compound, the “Plant response rating, Corn” value (corn (Zea mays); [13]) was 0, the “Plant response rating, Corn” value (corn (Zea mays); [14]) was 0 and the “Plant response rating, Foxtail, Giant” value [2, 11] was 30. The “Foxtail, Giant plant response rating” value [2, 12] was 50, the “Plant response rating, Foxtail, Giant” value [2, 13] was 40 and the “Plant response rating, Foxtail, Giant” value [2, 14] was 50. For the same compound, the “Plant response rating, Crabgrass, Large” value [3, 11] was 80, the “Crabgrass, Large plant response rating” value [3, 12] was 90 and the “Plant response rating, Crabgrass, Large” value [3, 13] was 30. For the same compound, the “Plant response rating, Crabgrass, Large” value [3, 14] was 90, the “Plant response rating, Morningglory” value [4, 11] was 70 and the “Morningglory plant response rating” value [4, 12] was 90. For the same compound, the “Plant response rating, Morningglory” value [4, 13] was 0, the “Plant response rating, Morningglory” value [4, 14] was 20 and the “Plant response rating, Pigweed” value [5, 11] was 80. The “Pigweed plant response rating” value [5, 12] was 90, the “Plant response rating, Pigweed” value [5, 14] was 80 and the “Plant response rating, Velvetleaf” value [6, 11] was 100. The “Velvetleaf plant response rating” value [6, 12] was 100, the “Plant response rating, Velvetleaf” value [6, 13] was 60 and the “Plant response rating, Velvetleaf” value [6, 14] was 80. For the same compound, the “Plant response rating, Wheat” value [7, 11] was 0, the “Wheat plant response rating” value [7, 12] was 0 and the “Plant response rating, Wheat” value [7, 13] was 0. The “Plant response rating, Wheat” value [7, 14] was 0, the “Plant response rating, Flood, Barnyardgrass” value [8, 15] was 40 and the “Plant response rating, Barnyardgrass” value [8, 16] was 0. For the same compound, the “Plant response rating, Barnyardgrass” value [8, 17] was 20, the “Barnyardgrass plant response rating” value [8, 18] was 0 and the “Plant response rating, Flood, Ducksalad” value [9, 15] was 0. The “Plant response rating, Ducksalad” value [9, 16] was 0, the “Plant response rating, Ducksalad” value [9, 17] was 0 and the “Ducksalad plant response rating” value [9, 18] was 0. For the same compound, the “Plant response rating, Flood, Rice” value (rice (Oryza sativa); [15]) was 45, the “Plant response rating, Rice” value (rice (Oryza sativa); [16]) was 20 and the “Plant response rating, Rice” value (rice (Oryza sativa); [17]) was 30. For the same compound, the “Rice plant response rating” value (rice (Oryza sativa); [18]) was 0, the “Plant response rating, Flood, Sedge, Umbrella” value [10, 15] was 75 and the “Plant response rating, Sedge, Umbrella” value [10, 16] was 30. The “Plant response rating, Sedge, Umbrella” value [10, 17] was 40 and the “Sedge, Umbrella plant response rating” value [10, 18] was 0.
